Data published in BindingDB's records for PubMed 30282319 (Polytechnic Institute of Braganca, 2018).
≈ marks a conversion by molar mass, not a printed value.

Molecular target: alpha-glucosidase (Saccharomyces cerevisiae)
Experiment: Inhibition of Saccharomyces cerevisiae alpha-glucosidase assessed as release of p-nitrophenol using pNPG as substrate preincubated for 15 mins followed by substrate addition and measured after 15 mins by plate reader analysis

Question: With COc1c(O)cc2oc3ccc(O)cc3c(=O)c2c1O as the molecule, how does the IC50 read?
Answer: 7.6 µg/mL (≈ 27.7 µM)

Question: With COc1cc(OC)c2c(=O)c3c(O)c(OC)ccc3oc2c1O as the molecule, how does the IC50 read?
Answer: 59 µg/mL (≈ 185 µM)

Question: How did the IC50 turn out when COc1c(O)cc(O)c2c(=O)c3cc(O)ccc3oc12 was run?
Answer: 13 µg/mL (≈ 47.4 µM)

Question: How did the IC50 turn out when COc1cc(O)c2c(=O)c3cc(O)ccc3oc2c1OC was run?
Answer: 13 µg/mL (≈ 45.1 µM)

Question: With COc1c(O)cc2oc3ccc(O)c(OC)c3c(=O)c2c1O as the molecule, how does the IC50 read?
Answer: 63 µg/mL (≈ 207 µM)

Question: For COc1ccc2oc3ccc(O)cc3c(=O)c2c1, which IC50 is on record?
Answer: 77 µg/mL (≈ 318 µM)

Question: For COc1ccc2oc3ccc(O)cc3c(=O)c2c1OC, which IC50 is on record?
Answer: 49 µg/mL (≈ 180 µM)

Question: Which IC50 does the source give for O=c1c2cc(O)ccc2oc2cc(O)cc(O)c12 [1,3,7-trihydroxy-9H-xanthen-9-one] here?
Answer: 3.2 µg/mL (≈ 13.1 µM)

Question: For O=c1c2cc(O)ccc2oc2cccc(O)c12 [CHEBI:4946], which IC50 is on record?
Answer: 36 µg/mL (≈ 158 µM)

Question: COc1ccc(O)c2c(=O)c3cc(O)ccc3oc12 [CHEBI:67553] was tested. Which IC50 did it give?
Answer: 28 µg/mL (≈ 108 µM)
